The values that follow come from article PMC3116189, “Novel Natural Inhibitors of CYP1A2 Identified by in Silico and in Vitro Screening” (International Journal of Molecular Sciences, 2011).

This data set has as its target T1, CYP1A2 (Homo sapiens, UniProt P05177).
T1 sequence (P05177 1-516): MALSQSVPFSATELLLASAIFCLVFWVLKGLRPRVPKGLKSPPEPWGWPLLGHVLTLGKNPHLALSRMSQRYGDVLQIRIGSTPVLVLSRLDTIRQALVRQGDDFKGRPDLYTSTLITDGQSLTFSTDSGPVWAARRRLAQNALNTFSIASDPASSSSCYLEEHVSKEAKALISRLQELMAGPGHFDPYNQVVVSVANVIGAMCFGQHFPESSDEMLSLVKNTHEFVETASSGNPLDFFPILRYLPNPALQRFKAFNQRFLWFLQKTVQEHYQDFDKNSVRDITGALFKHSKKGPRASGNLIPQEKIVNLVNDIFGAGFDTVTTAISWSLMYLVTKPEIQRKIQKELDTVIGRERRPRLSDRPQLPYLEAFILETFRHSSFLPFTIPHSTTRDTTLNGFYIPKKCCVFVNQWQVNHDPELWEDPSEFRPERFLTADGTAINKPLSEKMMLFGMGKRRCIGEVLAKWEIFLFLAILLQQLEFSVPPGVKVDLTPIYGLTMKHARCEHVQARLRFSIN
Nature of the data set: in vitro. The format is biochemical. The settings on record: for activity at 1 h, 1 μM: human.

[1] abbreviates: recombinant enzyme, pH 7.4, 1 μM active ingredient, Rh CYP1A2-mediated phenacetin O-deethylation, test dataset of 202 herb ingredients, read-out: % of Control Indication Activity (Mean).
[2] abbreviates: 1 μM active ingredient, Rh CYP1A2-mediated phenacetin O-deethylation, test dataset of 202 herb ingredients.
[3] abbreviates: recombinant human CYP1A2, pH 7.4, probe phenacetin (25 μM), O-deethylation to acetaminophen, 1 μM active ingredient, Rh CYP1A2-mediated phenacetin O-deethylation, test dataset of 202 herb ingredients, read-out: % of Control Indication Activity (Mean).

Where two headings read alike, the source gives them in different places.
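Also: recombinant CYP1A2 incubated for 1 h at 37 °C, with the reaction started by an NADPH-generating system.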

Consider `C=CCc1ccc(O)c(OC)c1` [Eugenol], for which the activity at 1 h, 1 μM under setting [1] was greater than 90%.

With `COc1ccc2cc1Oc1ccc(cc1)C[C@H]1c3cc(c(OC)cc3CCN1C)Oc1c(O)c(OC)cc3c1[C@H](C2)N(C)CC3` [Fangchinoline], under setting [1], the activity at 1 h, 1 μM was greater than 90%. `COc1cc(/C=C/C(=O)O)ccc1O` [Ferulic acid]: the “% of Control Indication Activity (Mean)” value under setting [2] is listed as greater than 90%.

As for `COc1ccc(-c2coc3cc(O)ccc3c2=O)cc1` [Formononetin], under setting [3], the activity at 1 h, 1 μM was greater than 90%. As for `COc1ccc([C@H]2OC[C@H]3[C@@H]2CO[C@H]3c2ccc(O[C@@H]3O[C@H](CO)[C@@H](O)[C@H](O)[C@H]3O)c(OC)c2)cc1OC` [Forsythin], the “% of Control Indication Activity (Mean)” value under setting [2] is reported as greater than 90%. As for `COc1cc2ccc(=O)oc2c(O)c1O` [Fraxetin], the activity at 1 h, 1 μM under setting [3] is greater than 90%. With `CC1=C2C(=O)O[C@@H](c3ccoc3)[C@]2(C)CCC1` [Fraxinellone], the activity at 1 h, 1 μM under setting [3] was greater than 90%. Consider `O=C(O)c1cc(O)c(O)c(O)c1` [Gallic acid], for which, under “recombinant enzyme, pH 7.4”, the activity at 1 h, 1 μM is greater than 90%. As for `OCc1ccc(O[C@@H]2O[C@H](CO)[C@@H](O)[C@H](O)[C@H]2O)cc1` [Gastrodin], under setting [1], the activity was greater than 90%. With `COC(=O)C1=CO[C@@H](O[C@@H]2O[C@H](CO)[C@@H](O)[C@H](O)[C@H]2O)[C@@H]2C(CO)=CC[C@H]12` [Geniposide], the activity under setting [1] is greater than 90%. In the case of `C[C@@H]1C(=O)O[C@H]2C[C@@]34[C@H]5C[C@@H](C(C)(C)C)[C@]36[C@@H](OC(=O)[C@@H]6O)O[C@@]4(C(=O)O5)[C@]21O` [Ginkgolide A], under setting [1], the activity is greater than 90%.

Turning to `CC(C)=CCC[C@](C)(O[C@@H]1O[C@H](CO)[C@@H](O)[C@H](O)[C@H]1O)[C@H]1CC[C@]2(C)[C@@H]1[C@H](O)C[C@@H]1[C@@]3(C)CC[C@H](O)C(C)(C)[C@@H]3[C@@H](O)C[C@]12C` [Ginsenoside F1], the activity at 1 h, 1 μM under setting [3] is greater than 90%. Turning to `CC(C)=CCC[C@](C)(O[C@@H]1O[C@H](CO[C@@H]2O[C@H](CO)[C@@H](O)[C@H](O)[C@H]2O)[C@@H](O)[C@H](O)[C@H]1O)[C@H]1CC[C@]2(C)[C@@H]1[C@H](O)C[C@@H]1[C@@]3(C)CC[C@H](O[C@@H]4O[C@H](CO)[C@@H](O)[C@H](O)[C@H]4O[C@@H]4O[C@H](CO)[C@@H](O)[C@H](O)[C@H]4O)C(C)(C)[C@@H]3CC[C@]12C` [Ginsenoside Rb1], the activity at 1 h, 1 μM under setting [3] is greater than 90%. For `CC(C)=CCC[C@](C)(O[C@@H]1O[C@H](CO)[C@@H](O)[C@H](O)[C@H]1O)[C@H]1CC[C@]2(C)[C@@H]1[C@H](O)C[C@@H]1[C@@]3(C)CC[C@H](O)C(C)(C)[C@@H]3[C@@H](O[C@@H]3O[C@H](CO)[C@@H](O)[C@H](O)[C@H]3O[C@@H]3O[C@@H](C)[C@H](O)[C@@H](O)[C@H]3O)C[C@]12C` [Ginsenoside Re], the activity at 1 h, 1 μM under setting [3] is greater than 90%. For the compound `CC(C)=CCC[C@](C)(O[C@@H]1O[C@H](CO)[C@@H](O)[C@H](O)[C@H]1O)[C@H]1CC[C@]2(C)[C@@H]1[C@H](O)C[C@@H]1[C@@]3(C)CC[C@H](O)C(C)(C)[C@@H]3[C@@H](O[C@@H]3O[C@H](CO)[C@@H](O)[C@H](O)[C@H]3O)C[C@]12C` [Ginsenoside Rg1], the activity at 1 h, 1 μM under setting [3] is greater than 90%.

Consider `CC1(C)[C@@H](O)CC[C@]2(C)[C@H]3C(=O)C=C4[C@@H]5C[C@@](C)(C(=O)O)CC[C@]5(C)CC[C@@]4(C)[C@]3(C)CC[C@@H]12` [Glycyrrhetinic acid], for which the activity at 1 h, 1 μM under setting [3] was greater than 90%. On the same count and under the same terms, with `C[C@]1(OC(=O)/C=C/c2ccccc2)C[C@@H](O)[C@]2(O)C=CO[C@@H](O[C@@H]3O[C@H](CO)[C@@H](O)[C@H](O)[C@H]3O)[C@@H]21` [Harpagoside] the figure was greater than 90%; with `CC1(C)CC[C@]2(C(=O)O)CC[C@]3(C)C(=CC[C@@H]4[C@@]5(C)CC[C@H](O)[C@@](C)(CO)[C@@H]5CC[C@]43C)[C@@H]2C1` [Hederagenin], greater than 90%.
